Assay results: ChEMBL document CHEMBL1201862, “PubChem BioAssay data set” (2004)
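Dose response: 5 concentrations. Exposure: 48 h. Format: 96-well plates. Endpoint: linear interpolation; highest concentration if not reached. Abbreviation: GI50, concentration required for 50% inhibition of growth.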 The source made the active and inactive calls. Cut-off read from the data, not from the text of the source: active = GI50 up to about 1.1 µM and inactive = higher.

Assays:
Assay in all cases: inhibition of tumour cell growth, NCI panel, 48 h
SNB-75 = test system: SNB-75
A549 = test system: A549
SK-MEL-28 = test system: SK-MEL-28
NCI/ADR-RES = test system: NCI/ADR-RES
M14 = test system: M14
NCI-H23 = test system: NCI-H23
HOP-92 = test system: HOP-92
MDA-MB-435 = test system: MDA-MB-435
HOP-62 = test system: HOP-62
SF-539 = test system: SF-539
SF-295 = test system: SF-295
T47D = test system: T47D
LOX IMVI = test system: LOX IMVI
HCT-116 = test system: HCT-116
SW-620 = test system: SW-620
HCT-15 = test system: HCT-15
OVCAR-8 = test system: OVCAR-8
SR = test system: SR
K562 = test system: K562
Hs-578T = test system: Hs-578T

| SMILES | GI50 (SNB-75) | GI50 (A549) | GI50 (SK-MEL-28) | GI50 (NCI/ADR-RES) | GI50 (M14) | GI50 (NCI-H23) | GI50 (HOP-92) | GI50 (MDA-MB-435) | GI50 (HOP-62) | GI50 (SF-539) | GI50 (SF-295) | GI50 (T47D) | GI50 (LOX IMVI) | GI50 (HCT-116) | GI50 (SW-620) | GI50 (HCT-15) | GI50 (OVCAR-8) | GI50 (SR) | GI50 (K562) | GI50 (Hs-578T) |
| --- | --- | --- | --- | --- | --- | --- | --- | --- | --- | --- | --- | --- | --- | --- | --- | --- | --- | --- | --- | --- |
| CC(C)Oc1c(O)c2c3c(oc(=O)n3C=CC2c2ccccc2)c1OC(C)C (stereo not drawn) | 21.9 µM (inactive) | 27.3 µM (inactive) | 22.5 µM (inactive) | 27.5 µM (inactive) | 20 µM (inactive) | 20.2 µM (inactive) | 30.2 µM (inactive) | > 10 µM (inactive) | 26.7 µM (inactive) | 19.7 µM (inactive) | 20.8 µM (inactive) | 25.9 µM (inactive) | 37.8 µM (inactive) | 28.8 µM (inactive) | 32 µM (inactive) | 12.8 µM | 31.9 µM (inactive) |  |  |  |
| CN(C)c1cccc2c1C(=O)C=CC21c2ccc(N(C)C)c3c(N(C)C)ccc(c23)C(c2ccccc2)C1c1ccccc1 (stereo not drawn) | 8.26 µM (inactive) | 27.5 µM (inactive) | 17.5 µM (inactive) | 22.6 µM (inactive) | 16.7 µM (inactive) | 24.7 µM (inactive) | 8.73 µM (inactive) | 15 µM (inactive) | 17.6 µM (inactive) | 12.1 µM (inactive) | 14.5 µM (inactive) |  | 15.2 µM (inactive) | 21.3 µM (inactive) | 19.8 µM (inactive) | 27.3 µM | 13.5 µM (inactive) | 7.82 µM (inactive) | 18.3 µM (inactive) | 10 µM (inactive) |
| C=C1c2nc3ccccc3n2C=C(c2ccc(Cl)cc2)N1c1ccc(OCCN2CCCCC2)cc1 |  | > 45 µM (inactive) | > 45 µM (inactive) | > 45 µM (inactive) | > 45 µM (inactive) | > 45 µM (inactive) | > 45 µM (inactive) | 1.59 µM (inactive) | > 45 µM (inactive) | > 100 µM (inactive) | > 45 µM (inactive) | > 45 µM (inactive) | > 45 µM (inactive) | > 45 µM (inactive) | > 45 µM (inactive) | > 45 µM | > 45 µM (inactive) | > 45 µM (inactive) | > 45 µM (inactive) |  |
| O=C(Nc1ccc(S(=O)(=O)/N=c2\ncccn2C(=O)C(C(F)(F)F)C(F)(F)F)cc1)C(C(F)(F)F)C(F)(F)F | 80.7 µM (inactive) | > 100 µM (inactive) | > 100 µM (inactive) | > 100 µM (inactive) | > 100 µM (inactive) | > 100 µM (inactive) |  | > 100 µM (inactive) | > 100 µM (inactive) | > 100 µM (inactive) | > 100 µM (inactive) | > 100 µM (inactive) | > 100 µM (inactive) | > 100 µM (inactive) |  | > 100 µM | > 100 µM (inactive) |  | > 100 µM (inactive) | > 100 µM (inactive) |
| O=C1C(NCCc2ccc(O)c([N+](=O)[O-])c2)=CC(=O)c2[nH]cnc21 |  | 28.6 µM (inactive) | 14.3 µM (inactive) | > 100 µM (inactive) | 15 µM (inactive) | 17.1 µM (inactive) |  | 18.6 µM (inactive) | 68.4 µM (inactive) | 38 µM (inactive) | 10.5 µM (inactive) | 18.5 µM (inactive) | 15.8 µM (inactive) | 24.7 µM (inactive) | 44.6 µM (inactive) | 39.7 µM | 25 µM (inactive) |  | 18.4 µM (inactive) | 83.9 µM (inactive) |
| COC(=O)C1=C(C(=O)OC)C2CCC1CC2=O (stereo not drawn) | > 100 µM (inactive) | > 100 µM (inactive) | > 100 µM (inactive) | > 100 µM (inactive) | > 100 µM (inactive) | > 100 µM (inactive) |  | > 100 µM (inactive) | > 100 µM (inactive) | > 100 µM (inactive) | > 100 µM (inactive) |  | > 100 µM (inactive) | > 100 µM (inactive) | 89.9 µM (inactive) | 83.8 µM | > 100 µM (inactive) | 61.2 µM (inactive) | 49 µM (inactive) |  |
| Cc1ccc(C(=O)Nc2ccc(S(=O)(=O)O)c3cc(S(=O)(=O)O)cc(S(=O)(=O)O)c23)cc1NC(=O)Nc1cc(C(=O)Nc2ccc(S(=O)(=O)O)c3cc(S(=O)(=O)O)cc(S(=O)(=O)O)c23)ccc1C | > 87.5 µM (inactive) | > 87.5 µM (inactive) | > 87.5 µM (inactive) |  | > 87.5 µM (inactive) | > 87.5 µM (inactive) |  | > 87.5 µM (inactive) | > 87.5 µM (inactive) |  |  | > 87.5 µM (inactive) | > 87.5 µM (inactive) | > 87.5 µM (inactive) | > 87.5 µM (inactive) | > 87.5 µM | > 87.5 µM (inactive) | > 87.5 µM (inactive) | > 87.5 µM (inactive) |  |
| Cc1nc(=O)c2cc(CN(C)c3ccc(C(=O)N[C@@H](CCC(=O)O)C(=O)O)s3)ccc2[nH]1 [RALTITREXED] | 6.79 µM (inactive) | 11.9 µM (inactive) | > 100 µM (inactive) |  | 0.0931 µM (active) |  | > 100 µM (inactive) | > 100 µM (inactive) | 0.13 µM (active) | 84.7 µM (inactive) | 0.0535 µM (active) | > 100 µM (inactive) | 0.0303 µM (active) | 0.264 µM (active) | > 100 µM (inactive) | > 100 µM | 0.0883 µM (active) | 0.0399 µM (active) | 0.0104 µM (active) | > 100 µM (inactive) |
